Experimental data as given in publication PMC10354095, “Insights into peculiar fungal LPMO family members holding a short C-terminal sequence reminiscent of phosphate binding motifs” (Scientific Reports, 2023).

Biological target: T1, CciAA9-X282-CBM1 (Coprinopsis cinerea, UniProt A8NCG7)
T1 construct: gene AA9-X282; AA9-X282-linker-CBM1; C-terminal poly-His tag; Pichia pastoris X33
Experiment: Amplex Red/HRP oxidase assay (H2O2 production)
Type: biochemical
Conditions: reductant (electron donor) at 50 uM, O2 as co-substrate; 1 uM enzyme; sodium phosphate 50 mM, pH 7.0

T1 sequence (A8NCG7 19-342): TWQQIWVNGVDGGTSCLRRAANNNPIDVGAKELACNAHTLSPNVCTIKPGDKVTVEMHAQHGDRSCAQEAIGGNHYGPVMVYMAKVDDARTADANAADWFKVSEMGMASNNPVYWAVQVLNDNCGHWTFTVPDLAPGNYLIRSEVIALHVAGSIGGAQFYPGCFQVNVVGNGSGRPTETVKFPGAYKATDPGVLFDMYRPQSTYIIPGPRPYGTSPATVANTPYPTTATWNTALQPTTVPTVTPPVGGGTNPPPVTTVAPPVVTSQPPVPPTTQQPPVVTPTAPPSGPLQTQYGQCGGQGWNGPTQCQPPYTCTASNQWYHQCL

In the case of `O=C1O[C@H]([C@@H](O)CO)C(O)=C1O` [ascorbic acid], the “Amplex Red/HRP oxidase assay (H2O2 production)” value is reported as “all AA9-X282 LPMOs displayed an oxidase (i.e. H2O2 producing) activity”.
